Reference: patent US7635720B2, “Prostaglandin analog compositions to treat epithelial-related conditions” (Meta Cosmetics, LLC, priority 2007, dated 2009)
Several values for one entry are separate records, joined by “and”; a condition that tells them apart may be missing. Equal entries are not always repeated. Entries after “also recorded” stand apart in the source; their conditions may differ.

Assays:
[1] = Bovine cornea hydrolysis assay; format: in vitro ADME; details: for % Hydrolyzed after 12 hr (negative control): PBS pH 7.4 only, no cornea, 37° C.; for % Hydrolyzed after 12 hr, Avg: average of cornea samples 1-3; for % Hydrolyzed after 12 hr: one bovine cornea in 10 ml PBS pH 7.4, 37° C., 250 μg compound, individual cornea samples 1-3
Source text: A bovine cornea hydrolysis test system (K. M. Maxey, et al., “The Hydrolysis of Bimatoprost in Corneal Tissue Generates a Potential Prostanoid FP Receptor Agonist,” Survey of Ophthalmology, 47 (Suppl 1):S34-40 (2002)) has been used to determine whether four test compounds of the present invention, namely 16-phenoxy PGF2α cyclopropyl amide; 17-phenyl trinor PGF2α cyclopropyl amide; 16-phenoxy PGF2α cyclopropyl methyl amide; and 17-phenyl trinor PGF2α cyclopropyl methyl amide, react similarly to bimatoprost in this test system.
Bovine corneas are excised within 1-2 hour of death. For each compound tested, one cornea (0.6 g) is placed into an 18 mm×150 mm glass test tube containing 10 ml of phosphate-buffered saline (“PBS”) at pH 7.4. The compound of interest (250 μg in about 120 μl ethanol) is added to each test tube containing a cornea and to a tube containing only 10 ml of PBS (no cornea), which served as a negative control. Test tubes are covered with parafilm and incubated at 37° C. with shaking.
After the first time point, a 5 ml aliquot is removed from each test tube and transferred into another marked test tube. The remaining material continues to incubate at 37° C. until subsequent test time point(s) is/are reached. For each test tube, 1.0 ml of 5% KHSO4 is added to bring the pH down to about 3 and sufficient NaCl is added to saturate the solution; the solution then is extracted three times with 80% ethyl acetate-hexane. The solvent is evaporated under nitrogen, dissolved in 200 μl of 80% ethyl acetate-hexane, and the 200 μl sample then transferred to a 2 ml screw cap vial. Samples are stored at −20° C. until run on an HPLC column.
After the second time point, the cornea is removed from each experimental test tube. For each test tube, 1.0 ml of 5% KHSO4 is added to bring the pH down to about 3 and sufficient NaCl added to saturate the solution; the solution then is extracted three times with 80% ethyl acetate-hexane. The solvent is evaporated under nitrogen, dissolved in 200 μl of 80% ethyl acetate-hexane, and the 200 μl sample then transferred to 2 ml screw cap vials. Samples are stored at −20° C. until they are run on an HPLC column.
For HPLC, samples are run on a Beckman Ultrasphere ODS analytical C18 HPLC column (5μ, 4.6 mm×25 cm) at 1 ml/min using either 60:40:0.1 or 70:30:0.1 methanol:water:acetic acid as solvent. Absorbance is monitored at 210 nm.

eyelashes [2] = test: Use for restoring eyelashes: transparent gel applied nightly at the skin-eyelash border, volunteers; format: in vivo, human
Source text: In one embodiment, the composition of the present invention is a transparent gel formulated according to Table 2. The formulation comprises water, at least one prostaglandin analog according to the present invention (concentration about 0.001% to about 0.05% w/w of the composition); a thickener, optionally a hair stimulating agent; caffeine, and at least one penetrating agent and the pH adjusted to 7.2. The gel is applied as a fine line at the skin-eyelash border every night on clean dry eyes. The gel is aqueous enough to spread to the hair follicles but thick enough not to drip.
In another embodiment, the composition is a transparent gel formulated to comprise at least one of 16-phenoxy PGF2α cyclopropyl amide; 17-phenyl trinor PGF2α cyclopropyl amide; 16-phenoxy PGF2α cyclopropyl methyl amide; or 17-phenyl trinor PGF2α cyclopropyl methyl amide (concentration about 0.001% to about 0.05% w/w of the composition) plus the following ingredients (Table 3):
(§1) Test formulations contained either 0.025% or 0.05% 16-phenoxy PGF2α cyclopropyl amide. The formulation containing 0.025% 16-phenoxy PGF2α cyclopropyl amide was used on the left side, and the formulation containing 0.05% 16-phenoxy PGF2α cyclopropyl amide was used on the right side. Test formulations were given randomly to volunteers without consideration of coloration of eyelashes, race, ethnicity or sex.

eyebrows = test: Use for restoring eyebrows: transparent gel applied nightly at the browbone, volunteers; format: in vivo, human
Source text: A composition prepared according to the present invention is formulated as a transparent gel as described in the two described embodiments of Example 2. The formulation comprises water, at least one prostaglandin analog according to the present invention (concentration about 0.001% to about 0.05% w/w of the composition); a thickener, optionally a hair stimulating agent; caffeine, and at least one penetrating agent and the pH adjusted to 7.2. The gel is applied by brush as a line at the browbone every night on clean, oil-free brows in the absence of makeup. The gel is sufficiently aqueous to spread to the hair follicles but thick enough not to drip.
as §1

eyelashes [3] = details: background statement; cited from earlier work
[4] = 0.025% formulation left, 0.05% right
[5] = gel 0.025% / 0.05% nightly, single subject

For O=C(CCC/C=C\C[C@@H]1[C@@H](/C=C/[C@@H](O)COc2ccccc2)[C@H](O)C[C@@H]1O)NC1CC1 [16-phenoxy PGF2α cyclopropyl amide, 16-phenoxy tetranor PGF2α cyclopropyl amide], the “% Hydrolyzed after 12 hr (negative control)” value [1] was 0%, the “% Hydrolyzed after 12 hr, Avg” value [1] was 1.78% and the “% Hydrolyzed after 12 hr” value [1] was 2.0% and 1.89% and 1.44%. For the same compound, the “left side (0.025%) versus right side (0.05%), eyelashes” value (eyelashes [2]; [4]) was “no significant difference; also recorded: Right side was faster to grow; also recorded: Subject thought right side was better; also recorded: Subject thought left side was better”, the “increase in eyelash length” value (eyelashes [2]; gel 0.025% (left) / 0.05% (right) nightly, single subject, final result or time not given) was “about 55% and approximately 80% and approximately 45% and 50% and 45% and approximately 60% and 100% and 45-50%” and the “eyelash appearance (in words)” value (eyelashes [2]; [5]) was “darker, fuller and showed an upward curving angle of growth; also recorded: much thicker, fuller, longer and curvier than before use; also recorded: Lashes grew so much that by week 4 the test was discontinued because eyelashes were too long; also recorded: darker, fuller, and longer; also recorded: thicker and darker and curled upwards; also recorded: much thicker after 2 weeks; also recorded: much darker, thicker; also recorded: darker, and curved upwards; also recorded: longer, thicker and darker; also recorded: bushy, very thick, dark; also recorded: eyelashes had grown to the point of clear visibility below lids; also recorded: darker, thicker and lashes curled up; also recorded: darker and more upturned; also recorded: Noticeable improvement after 4 weeks even without mascara”. The “time by which increase in eyelash length / growth was obvious” value (eyelashes [2]; [5]) was “about 3 weeks and ≤ 3 weeks and ≤ 2 weeks”, the “time to some thickening of eyelashes” value (eyelashes [2]; [5]) was ≤ 10 days and the “increase in eyelash length” value (eyelashes [2]; gel 0.025% / 0.05% nightly, single subject, 3 weeks) was 40% and 30%. For the same compound, the “increase in eyelash length” value (eyelashes [2]; gel 0.025% / 0.05% nightly, single subject, 4 weeks) was “about 50% and 50% and approximately 60%”, the “increase in eyelash length” value (eyelashes [2]; gel 0.025% / 0.05% nightly, single subject, 5 weeks) was “Approximately 60%; also recorded: about 100%; also recorded: approximately 45%” and the “increase in eyelash length” value (eyelashes [2]; gel 0.025% / 0.05% nightly, single subject, 6 weeks) was 100% and ~45% and 50%. The “increase in eyelash length” value (eyelashes [2]; gel 0.025% / 0.05% nightly, single subject, after two months) was “approximately 55%”, the “increase in numbers of eyelashes” value (eyelashes [2]; gel 0.025% / 0.05% nightly, single subject, final or peak result) was 60% and 30% and 50% and the “increase in eyelash thickness” value (eyelashes [2]; gel 0.025% / 0.05% nightly, single subject, final result) was “approximately doubled and approximately 60% and 100% and ~100%”. For the same compound, the “tolerability of the product” value (eyelashes [2]; subjects with dry eye) was “tolerated the product well”, the “left side (0.025%) versus right side (0.05%), eyebrows” value (eyebrows; [4]) was “no significant difference” and the “eyebrow hair result (in words)” value (eyebrows; gel 0.025% (left) / 0.05% (right) nightly, single subject) was “noticeable increase in number of hairs and color after 2 weeks; also recorded: Hairs started to fill in”.
With O=C(CCC/C=C\C[C@@H]1[C@@H](/C=C/[C@@H](O)COc2ccccc2)[C@H](O)C[C@@H]1O)NCC1CC1 [16-phenoxy tetranor PGF2α cyclopropyl methyl amide] the “% Hydrolyzed after 12 hr (negative control)” value [1] was 0%, the “% Hydrolyzed after 12 hr, Avg” value [1] was 1.22% and the “% Hydrolyzed after 12 hr” value [1] was 1.28% and 1.18% and 1.2%.
With O=C(CCC/C=C\C[C@@H]1[C@@H](/C=C/[C@@H](O)CCc2ccccc2)[C@H](O)C[C@@H]1O)NCC1CC1 [17 phenyl trinor PGF2α cyclopropyl methyl amide] the “% Hydrolyzed after 12 hr (negative control)” value [1] was 0%, the “% Hydrolyzed after 12 hr, Avg” value [1] was 0.91% and the “% Hydrolyzed after 12 hr” value [1] was 0.83% and 0.8% and 1.1%.
In the case of O=C(CCC/C=C\C[C@@H]1[C@@H](/C=C/[C@@H](O)CCc2ccccc2)[C@H](O)C[C@@H]1O)NC1CC1 [17-phenyl trinor PGF2α cyclopropyl amide, 17 phenyl trinor PGF2α cyclopropylamide], the “% Hydrolyzed after 12 hr (negative control)” value [1] is reported as 0%, the “% Hydrolyzed after 12 hr, Avg” value [1] is reported as 1.82% and the “% Hydrolyzed after 12 hr” value [1] is reported as 1.31% and 2.0% and 2.15%.
For CCNC(=O)CCC/C=C\C[C@@H]1[C@@H](/C=C/[C@@H](O)CCc2ccccc2)[C@H](O)C[C@@H]1O [Bimatoprost, cyclopentane N-ethyl heptenamide-5-cis-2-(3α-hydroxy-5-phenyl-1-trans-pentenyl)-3,4-dihydroxy, [1α, 2β, 3α, 5α]], the “effect on eyelash growth (in words)” value (eyelashes [3]) is listed as “effective to increase the growth of eyelashes”, the incidence of hyperemia (eyelashes [3]) is listed as “highest incidence of hyperemia” and the negative side effects (eyelashes [3]) is listed as “redness and discoloration along the periocular skin; eye irritation; and foreign body sensation”.
For CC(C)OC(=O)CCC/C=C\C[C@@H]1[C@@H](CC[C@@H](O)CCc2ccccc2)[C@H](O)C[C@@H]1O [Latanoprost], the “effect on eyelash growth (in words)” value (eyelashes [3]) is given as “works poorly on eyelashes”.
In the case of CC(C)OC(=O)CCC/C=C\C[C@@H]1[C@@H](/C=C/[C@@H](O)COc2cccc(C(F)(F)F)c2)[C@H](O)C[C@@H]1O [Travaprost, isopropyl (Z)-7-[(1R,2R,3R,5S)-3,5-dihydroxy-2-[(1E,3R)-3-hydroxy-4-[(α,α,α-trifluoro-m-tolyl)oxy]-1-butenyl]cyclopentyl]-5-heptenoate], the “effect on eyelash growth (in words)” value (eyelashes [3]) is given as “does not work well for eyelash growth, taking longer than other like products”.
